Experimental data taken from PMC11878344 (Angewandte Chemie (International Ed. in English), 2025).

Test system: MAGL
Assay: not given
Parameters: method as in PMID 35089028, PMID 34764251, PMID 34328319, PMID 29498843
Conditions: known MAGL ligands of Figure 1; cited from earlier work

Structure (SMILES)	IC50
Cc1ccc(C(c2ccccc2)C2CCN(C(=O)N3CCC4OCC(=O)NC4C3)CC2)cc1 (stereo not drawn) [Compound 85]	0.1 nM

Biological target: T1, NanoLuc luciferase MAGL fusion protein in HEK293A cells (Homo sapiens, UniProt Q99685)
T1 construct: expressed in transfected cells
T1 sequence (Q99685 1-303): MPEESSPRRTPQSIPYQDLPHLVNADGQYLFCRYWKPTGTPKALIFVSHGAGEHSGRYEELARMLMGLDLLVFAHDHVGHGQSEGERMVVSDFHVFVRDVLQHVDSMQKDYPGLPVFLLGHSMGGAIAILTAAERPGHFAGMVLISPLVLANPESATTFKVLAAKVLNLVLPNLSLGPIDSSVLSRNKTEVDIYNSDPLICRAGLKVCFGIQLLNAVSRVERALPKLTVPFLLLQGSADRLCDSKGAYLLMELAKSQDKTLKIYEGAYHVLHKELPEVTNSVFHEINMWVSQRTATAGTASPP
Assay: Cellular MAGL NanoBRET target engagement assay
Format: cell-based
Conditions: Table 1; transfected HEK293 cells; n=1 to 3; read-out: HEK293 nanoBRET IC50
Experimental: We, therefore, confirmed cellular MAGL target engagement in a nanoBRET assay using live HEK293 cells.[39] […] To overcome the low cellular potency of 4, we exploited the modular construction principle to modulate unfavorable physicochemical properties and investigated less polar, privileged head groups[23, 33, 40] (Supporting Information Table S4). […]
This assay was performed as first described before.[39]
Compounds were profiled by a novel cellular MAGL NanoBRET™ Target Engagement assay, which measures the apparent affinity of test compounds by competitive displacement of a Roche-developed Tracer (WO2021058443, Example 21)[21], reversibly bound to a NanoLuc® luciferase MAGL fusion protein in cells.
A HEK293A stable cell line expressing NanoLuc_MAGL was established at Roche and assigned as HEK293A_NanoLuc_MAGL clone #43. A fixed concentration of tracer is added to cells expressing the NanoLuc®_MAGL fusion protein to generate a BRET reporter complex. The introduction of competing compounds results in a dose-dependent decrease in NanoBRET™ energy transfer, which allows quantification of the intracellular affinity of the target protein for the […]
HEK293A_NanoLuc_MAGL clone #43 cells were cultured in DMEM (Gibco 31966) with 10% FBS and 800 ug/ml G418. The NanoBRET assay was performed by seeding 5000 cells/well in Costar low-volume white 384-well plate in assay buffer (1% FBS in HBSS), followed by adding 50 nM final concentration of tracer and serial dilutions of test compounds. After 2 hours of incubation, Nanoluciferase substrates and extracellular inhibitors were added following the manufacturer's protocol (Promega, #N2520), and the NanoBRET signaling were quantified with the Paradigm

IC50	Structure (SMILES)
406 nM	O=C1CO[C@H]2CCN(C(=O)N3CC(COCc4cccc(OCCNC(=O)OCc5ccccc5)c4)C3)C[C@H]2N1 [Compound 2]
141 nM	O=C1CO[C@H]2CCN(C(=O)N3CC(COCc4ccccc4OCCNC(=O)OCc4ccccc4)C3)C[C@H]2N1 [Compound 3]

Further lines, the compound ahead of its results:

Structure (SMILES)	IC50
O=C1CO[C@H]2CCN(C(=O)N3CC(COCc4ccccc4)C3)C[C@H]2N1 [Compound 1]	> 10000 nM
O=C(NCCOc1ccccc1COCC1CN(C(=O)N2CC3(COC(=O)N3)C2)C1)OCc1ccccc1 [Compound 5]	61 nM

Biological target: T2, human MAGL (Homo sapiens, UniProt Q99685)
T2 sequence (Q99685 1-303): T1 sequence (Q99685 1-303)
Assay: In vitro MAGL inhibition assay (2-AG hydrolysis followed by mass spectrometry)
Format: biochemical
Conditions: Supporting Information Tables S1-S5; read-out: IC50 hMAGL
Experimental: (§1) 4. Experimental Details of Biochemical Assays and Crystal Structure
(§2) In Vitro MAGL Inhibition Assay
(§3) Compounds were profiled for MAGL inhibitory activity by determining the enzymatic activity by following the hydrolysis of the natural substrate 2-arachidonoylglycerol (2-AG), resulting in arachidonic acid, which can be followed by mass spectrometry. The 2-AG assay was carried out in 384 well assay plates (PP, Greiner Cat# 784201) in a total volume of 20 µL. Compound dilutions were made in 100% DMSO (VWR Chemicals 23500.297) in a polypropylene plate in 3-fold dilution steps to give a final concentration range in the assay from 12.5 µM to 0.8 pM. 0.25µL compound dilutions (100% DMSO) were added to 9 µL MAGL in assay buffer (50 mM TRIS (GIBCO, 15567-027), 1 mM EDTA (Fluka, 03690-100 mL), 0.01% (v/v) Tween. After shaking, the plate was incubated for 15 min at RT. To start the reaction, 10 µL 2-arachidonoylglycerol in assay buffer was added. The final concentrations in the assay were 50 pM MAGL and 8 µM 2-arachidonoylglyerol. After shaking and 30 min incubation at RT, the reaction was quenched by the addition of 40µL of ACN containing 4 µM of d8-arachidonic acid. The amount of arachidonic acid was traced by an online SPE system (Agilent Rapidfire) coupled to a triple quadrupole mass spectrometer (Agilent 6460). A C18 SPE cartridge (G9205A) was used in an ACN/water liquid setup. The mass spectrometer was operated in negative electrospray mode following the mass transitions 303.1 → 259.1 for arachidonic acid and 311.1 → 267.0 for d8-arachidonic acid. The activity of the compounds was calculated based on the ratio of intensities [arachidonic acid / d8- […]
(§4) This assay was performed as first described before.[39] […]

IC50	Structure (SMILES)
31 nM	O=C1CO[C@H]2CCN(C(=O)N3CC(COCc4cccc(OCCNC(=O)OCc5ccccc5)c4)C3)C[C@H]2N1 [Compound 2]
2 nM	O=C1CO[C@H]2CCN(C(=O)N3CC(COCc4ccccc4OCCNC(=O)OCc4ccccc4)C3)C[C@H]2N1 [Compound 3]

Same assay, conditions: Table 1; n=1 to 3; read-out: hMAGL IC50

IC50	Structure (SMILES)
30.8 nM	O=C1CO[C@H]2CCN(C(=O)N3CC(COCc4cccc(OCCNC(=O)OCc5ccccc5)c4)C3)C[C@H]2N1 [Compound 2]
2.14 nM	O=C1CO[C@H]2CCN(C(=O)N3CC(COCc4ccccc4OCCNC(=O)OCc4ccccc4)C3)C[C@H]2N1 [Compound 3]

Continued, compound first:

Structure (SMILES)	IC50
O=C1CO[C@H]2CCN(C(=O)N3CC(COCc4ccccc4)C3)C[C@H]2N1 [Compound 1]	379 nM
O=C(NCCOc1ccccc1COCC1CN(C(=O)N2CC3(COC(=O)N3)C2)C1)OCc1ccccc1 [Compound 5]	0.29 nM

Biological target: T3, mouse MAGL (Mus musculus, UniProt O35678)
T3 sequence (O35678 1-303): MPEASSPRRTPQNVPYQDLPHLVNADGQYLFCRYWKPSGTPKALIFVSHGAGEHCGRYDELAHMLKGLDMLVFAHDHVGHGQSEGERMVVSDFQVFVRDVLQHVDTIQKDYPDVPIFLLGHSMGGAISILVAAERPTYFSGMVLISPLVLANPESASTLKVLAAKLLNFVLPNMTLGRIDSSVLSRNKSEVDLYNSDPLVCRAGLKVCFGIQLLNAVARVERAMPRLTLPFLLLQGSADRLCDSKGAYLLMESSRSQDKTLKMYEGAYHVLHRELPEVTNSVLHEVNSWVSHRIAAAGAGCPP
Assay: as above
Format: biochemical
Conditions: Supporting Information Tables S1-S5; read-out: IC50 mMAGL
Experimental: as §1, §2, §3, §4

IC50	Structure (SMILES)
97 nM	O=C1CO[C@H]2CCN(C(=O)N3CC(COCc4cccc(OCCNC(=O)OCc5ccccc5)c4)C3)C[C@H]2N1 [Compound 2]
5 nM	O=C1CO[C@H]2CCN(C(=O)N3CC(COCc4ccccc4OCCNC(=O)OCc4ccccc4)C3)C[C@H]2N1 [Compound 3]

Same assay, conditions: Table 1; n=1 to 3; read-out: mMAGL IC50

IC50	Structure (SMILES)
97.4 nM	O=C1CO[C@H]2CCN(C(=O)N3CC(COCc4cccc(OCCNC(=O)OCc5ccccc5)c4)C3)C[C@H]2N1 [Compound 2]
5.41 nM	O=C1CO[C@H]2CCN(C(=O)N3CC(COCc4ccccc4OCCNC(=O)OCc4ccccc4)C3)C[C@H]2N1 [Compound 3]

More lines, now with the values behind:

Structure (SMILES)	IC50
O=C1CO[C@H]2CCN(C(=O)N3CC(COCc4ccccc4)C3)C[C@H]2N1 [Compound 1]	526 nM
O=C(NCCOc1ccccc1COCC1CN(C(=O)N2CC3(COC(=O)N3)C2)C1)OCc1ccccc1 [Compound 5]	0.59 nM

Biological target: Cyno MAGL (Macaca fascicularis, UniProt A0A2K5V664)
Sequence (A0A2K5V664 entry or part of it): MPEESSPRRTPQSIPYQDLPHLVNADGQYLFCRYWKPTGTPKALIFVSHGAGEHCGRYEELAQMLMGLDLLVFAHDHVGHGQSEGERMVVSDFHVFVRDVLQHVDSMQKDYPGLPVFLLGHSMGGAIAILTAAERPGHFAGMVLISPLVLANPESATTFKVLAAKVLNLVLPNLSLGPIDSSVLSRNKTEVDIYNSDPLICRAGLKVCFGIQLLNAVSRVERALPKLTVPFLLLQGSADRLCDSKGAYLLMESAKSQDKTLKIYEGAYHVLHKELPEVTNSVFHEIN
Assay: In vitro MAGL inhibition assay
Format: biochemical, cynomolgus monkey
Conditions: Supporting Information Table S4
Experimental: as §1, §2
Compounds were profiled for MAGL inhibitory activity by determining the enzymatic activity by following the hydrolysis of the natural substrate 2-arachidonoylglycerol (2-AG), resulting in arachidonic acid, which can be followed by mass spectrometry. The 2-AG assay was carried out in 384 well assay plates (PP, Greiner Cat# 784201) in a total volume of 20 µL. Compound dilutions were made in 100% DMSO (VWR Chemicals 23500.297) in a polypropylene plate in 3-fold dilution steps to give a final concentration range in the assay from 12.5 µM to 0.8 pM. […] The activity of the compounds was calculated based on the ratio of intensities [arachidonic acid / d8- […]

IC50	Structure (SMILES)
0.094 nM	O=C(NCCOc1ccccc1COCC1CN(C(=O)N2CC3(COC(=O)N3)C2)C1)OCc1ccccc1 [Compound 5]
